Results: patent publication US5202315A, “Cephalosporin compounds” (Lucky, Ltd., priority 1989, dated 1993)
In brackets after ≈: the same amount, converted by molar mass.

Tests used:
Assay in all cases: Antibacterial activity, MIC
Assay type in all cases: cell-based
[1] = system: Staphylococcus aureus ATCC 10537; conditions: ATCC10537, ATCC 10537, agar two-fold dilution, 37° C., 20 hours, read-out: MIC
Description: (§1) Also, the in vitro antibacterial activity was determined by the by a two-fold dilution method as described below:
(§2) That is, the two-fold serial dilutions of the compound were made dispersed in Muller-Hinton agar medium. 2 μl of standard test strain which had the 10^7 CFU per ml was inoculated on the medium, and was incubated at 37° C. for 20 hours.

[2] = system: Pseudomonas aeruginosa ATCC 10145; conditions: ATCC10145, ATCC 10145, agar two-fold dilution, 37° C., 20 hours, read-out: MIC
Description: as §1, §2

[3] = system: Escherichia coli ATCC 10536; conditions: ATCC10536, agar two-fold dilution, 37° C., 20 hours
Description: as §1, §2

[4] = system: Providencia rettgeri ATCC 9250; conditions: ATCC9250, agar two-fold dilution, 37° C., 20 hours
Description: as §1, §2

[5] = system: Morganella morganii ATCC 8076h; conditions: ATCC8076H, agar two-fold dilution, 37° C., 20 hours
Description: as §1, §2

[6] = system: Enterobacter aerogenes ATCC 29751; conditions: Klebsiella aerogenes, ATCC29751; ATCC 29751; agar two-fold dilution, 37° C., 20 hours; read-out: MIC
Description: as §1, §2

[7] = system: Bacillus cereus ATCC 11778; conditions: ATCC11778, ATCC 11778, agar two-fold dilution, 37° C., 20 hours, read-out: MIC
Description: as §1, §2

[8] = system: Staphylococcus aureus ATCC 6538p; conditions: ATCC6538P, ATCC 6538p, agar two-fold dilution, 37° C., 20 hours, read-out: MIC
Description: as §1, §2

[9] = system: Salmonella typhimurium ATCC 14028; conditions: Salmonella enterica; ATCC 14028; agar two-fold dilution, 37° C., 20 hours; read-out: MIC
Description: as §1, §2

[10] = system: Streptococcus faecalis ATCC 29212; conditions: Enterococcus faecalis, ATCC29212; ATCC 29212; agar two-fold dilution, 37° C., 20 hours; read-out: MIC
Description: as §1, §2

[11] = system: Pseudomonas aeruginosa ATCC 27853; conditions: ATCC27853, ATCC 27853, agar two-fold dilution, 37° C., 20 hours, read-out: MIC
Description: as §1, §2

[12] = system: Staphylococcus epidermidis ATCC 12228; conditions: ATCC12228, ATCC 12228, agar two-fold dilution, 37° C., 20 hours, read-out: MIC
Description: as §1, §2

[13] = system: Acinetobacter calcoaceticus ATCC 15473; conditions: ATCC15473, ATCC 15473, agar two-fold dilution, 37° C., 20 hours, read-out: MIC
Description: as §1, §2

[14] = system: Proteus mirabilis ATCC 25933; conditions: ATCC25933, ATCC 25933, agar two-fold dilution, 37° C., 20 hours, read-out: MIC
Description: as §1, §2

[15] = system: Shigella sonnei ATCC 11060; conditions: ATCC11060, ATCC 11060, agar two-fold dilution, 37° C., 20 hours, read-out: MIC
Description: as §1, §2

[16] = system: Serratia marcescens ATCC 27117; conditions: ATCC27117, ATCC 27117, agar two-fold dilution, 37° C., 20 hours, read-out: MIC
Description: as §1, §2

[17] = system: Klebsiella pneumoniae ATCC 10031; conditions: ATCC10031, ATCC 10031, agar two-fold dilution, 37° C., 20 hours, read-out: MIC
Description: as §1, §2

[18] = system: Citrobacter freundii ATCC 8090; conditions: ATCC8090, ATCC 8090, agar two-fold dilution, 37° C., 20 hours, read-out: MIC
Description: as §1, §2

[19] = system: Enterobacter cloacae ATCC 27508; conditions: ATCC27508, ATCC 27508, agar two-fold dilution, 37° C., 20 hours, read-out: MIC
Description: as §1, §2

[20] = system: Shigella flexneri ATCC 11836; conditions: ATCC11836, agar two-fold dilution, 37° C., 20 hours
Description: as §1, §2

[21] = system: Proteus vulgaris ATCC 6059; conditions: ATCC6059, ATCC 6059, agar two-fold dilution, 37° C., 20 hours, read-out: MIC
Description: as §1, §2

[22] = system: Pseudomonas aeruginosa ATCC 25619; conditions: ATCC25619, ATCC 25619, agar two-fold dilution, 37° C., 20 hours, read-out: MIC
Description: as §1, §2

[23] = system: Escherichia coli ATCC 25922; conditions: ATCC25922, agar two-fold dilution, 37° C., 20 hours
Description: as §1, §2

[24] = system: Micrococcus luteus ATCC 9341; conditions: ATCC9341, ATCC 9341, agar two-fold dilution, 37° C., 20 hours, read-out: MIC
Description: as §1, §2

[25] = system: Bacillus megaterium ATCC 9885; conditions: Priestia megaterium, ATCC9885; ATCC 9885; agar two-fold dilution, 37° C., 20 hours; read-out: MIC
Description: as §1, §2

SMILES | MIC [1] [µg/mL] | MIC [2] [µg/mL] | MIC [3] [µg/mL] | MIC [4] [ng/mL] | MIC [5] [µg/mL] | MIC [6] [µg/mL] | MIC [7] [µg/mL] | MIC [8] [µg/mL] | MIC [9] [µg/mL] | MIC [10] [µg/mL] | MIC [11] [µg/mL] | MIC [12] [µg/mL] | MIC [13] [µg/mL] | MIC [14] [µg/mL] | MIC [15] [µg/mL] | MIC [16] [µg/mL] | MIC [17] [µg/mL] | MIC [18] [µg/mL] | MIC [19] [µg/mL] | MIC [20] [µg/mL] | also measured
CCO/N=C(\C(=O)NC1C(=O)N2C(C(=O)[O-])=C(CSc3nc(N)cc(N)[n+]3CC)CSC12)c1nsc(N)n1 (stereo not shown) [Compound I-21] | 0.25 (≈ 0.431 µM) | 4 (≈ 6.89 µM) | 0.13 (≈ 0.224 µM) | ≤ 8 | 0.016 (≈ 0.0276 µM) | 0.5 (≈ 0.861 µM) | 16 (≈ 27.6 µM) | 0.5 (≈ 0.861 µM) | 0.5 (≈ 0.861 µM) | 16 (≈ 27.6 µM) | 2 (≈ 3.44 µM) | 0.13 (≈ 0.224 µM) | 4 (≈ 6.89 µM) | 1 (≈ 1.72 µM) | 0.25 (≈ 0.431 µM) | 0.25 (≈ 0.431 µM) | 0.016 (≈ 0.0276 µM) | 0.13 (≈ 0.224 µM) | 0.016 (≈ 0.0276 µM) | 0.063 (≈ 0.108 µM) | MIC [21]: 1 µg/mL (≈ 1.72 µM); MIC [22]: 1 µg/mL (≈ 1.72 µM); MIC [23]: 0.13 µg/mL (≈ 0.224 µM); MIC [24]: 0.016 µg/mL (≈ 0.0276 µM); MIC [25]: 0.13 µg/mL (≈ 0.224 µM)
CCC[n+]1c(N)cc(N)nc1SCC1=C(C(=O)[O-])N2C(=O)C(NC(=O)/C(=N\OCC)c3nsc(N)n3)C2SC1 (stereo not shown) [Compound I-22] | 0.5 (≈ 0.841 µM) | 16 (≈ 26.9 µM) | 0.25 (≈ 0.42 µM) | ≤ 8 | 0.031 (≈ 0.0521 µM) | 1 (≈ 1.68 µM) | 16 (≈ 26.9 µM) | 0.5 (≈ 0.841 µM) | 2 (≈ 3.36 µM) | 16 (≈ 26.9 µM) | 4 (≈ 6.73 µM) | 0.25 (≈ 0.42 µM) | 4 (≈ 6.73 µM) | 2 (≈ 3.36 µM) | 0.5 (≈ 0.841 µM) | 0.5 (≈ 0.841 µM) | 0.016 (≈ 0.0269 µM) | 0.25 (≈ 0.42 µM) | 0.031 (≈ 0.0521 µM) | 0.13 (≈ 0.219 µM) | MIC [21]: 2 µg/mL (≈ 3.36 µM); MIC [22]: 1 µg/mL (≈ 1.68 µM); MIC [23]: 0.25 µg/mL (≈ 0.42 µM); MIC [24]: 0.016 µg/mL (≈ 0.0269 µM); MIC [25]: 0.13 µg/mL (≈ 0.219 µM)
C=CC[n+]1c(N)cc(N)nc1SCC1=C(C(=O)[O-])N2C(=O)C(NC(=O)/C(=N\OCC)c3nsc(N)n3)C2SC1 (stereo not shown) [Compound I-23] | 1 (≈ 1.69 µM) | 16 (≈ 27 µM) | 0.5 (≈ 0.844 µM) | ≤ 8 | 0.031 (≈ 0.0523 µM) | 2 (≈ 3.37 µM) | 16 (≈ 27 µM) | 1 (≈ 1.69 µM) | 2 (≈ 3.37 µM) | 32 (≈ 54 µM) | 8 (≈ 13.5 µM) | 0.25 (≈ 0.422 µM) | 8 (≈ 13.5 µM) | 2 (≈ 3.37 µM) | 0.5 (≈ 0.844 µM) | 1 (≈ 1.69 µM) | 0.031 (≈ 0.0523 µM) | 0.25 (≈ 0.422 µM) | 0.031 (≈ 0.0523 µM) | 0.13 (≈ 0.219 µM) | MIC [21]: 1 µg/mL (≈ 1.69 µM); MIC [22]: 2 µg/mL (≈ 3.37 µM); MIC [23]: 0.25 µg/mL (≈ 0.422 µM); MIC [24]: 0.016 µg/mL (≈ 0.027 µM); MIC [25]: 0.25 µg/mL (≈ 0.422 µM)
CO/N=C(\C(=O)NC1C(=O)N2C(C(=O)[O-])=C(CSc3nc(N)cc(N)[n+]3C)CSC12)c1nsc(N)n1 (stereo not shown) [Compound I-24] | 0.5 (≈ 0.905 µM) | 16 (≈ 29 µM) | 0.13 (≈ 0.235 µM) | 16 (≈ 0.029 µM) | 0.063 (≈ 0.114 µM) | 1 (≈ 1.81 µM) | 32 (≈ 57.9 µM) | 0.5 (≈ 0.905 µM) | 0.5 (≈ 0.905 µM) | 32 (≈ 57.9 µM) | 4 (≈ 7.24 µM) | 0.25 (≈ 0.452 µM) | 2 (≈ 3.62 µM) | 1 (≈ 1.81 µM) | 0.13 (≈ 0.235 µM) | 0.25 (≈ 0.452 µM) | 0.031 (≈ 0.0561 µM) | 0.13 (≈ 0.235 µM) | 0.063 (≈ 0.114 µM) | 0.031 (≈ 0.0561 µM) | MIC [21]: 1 µg/mL (≈ 1.81 µM); MIC [22]: 4 µg/mL (≈ 7.24 µM); MIC [23]: 0.13 µg/mL (≈ 0.235 µM); MIC [24]: 0.13 µg/mL (≈ 0.235 µM); MIC [25]: 0.25 µg/mL (≈ 0.452 µM)
